Source: patent publication US9487561B2, “Biologically active complex and its preparation” (HAMLET PHARMA AB, priority 2010, dated 2016)
Entries after “also recorded” stand apart in the source; their conditions may differ.

Key:
[1] = test system: A549 lung carcinoma cells; test: cell death assay (trypan blue exclusion, ATP levels); format: cell-based, human; details: for effect of p38 inhibitor on death in response to HAMLET: SB202190 20 μM or BIRB796 10 μM, HAMLET 3 h
Experimental: (§1) Cells were detached from cell culture flasks with versen (0.2 g EDTA in 200 ml H2O and 800 ml PBS), washed with PBS and resuspended in serum-free RPMI-1640. HAMLET dissolved in PBS was incubated with cells (0.5×10^6/ml for A549, A498 and HeLa cells; 1×10^6/ml for Jurkat) at 37° C. FCS was added after 1 hour. Cell death was quantified by trypan blue exclusion (Chroma Gesellschaft Schmid & Co) or by measuring ATP levels (ATPlite Kit, PerkinElmer, Infinite 200, Tecan). Light images were captured using the HOLOMONITOR™ M2 digital holographic microscope (Phase Holographic Imaging AB, Lund, Sweden).
(§2) For studies with inhibitors, cells were pretreated for 30 minutes. Inhibitors used were Gadolinium chloride (GdCl3, 100 μM), Barium chloride (BaCl2, 1 mM), Ruthenium red (30 μM), tetrandrine (10 μM) and amiloride (1 mM), all from Sigma Aldrich. For p38 inhibition, SB202190 (20 μM, Sigma Aldrich) or BIRB796 (10 μM, Axon Medchem) dissolved in DMSO was used. The wells were washed twice with PBS and new medium with inhibitor was added. For RNA interference, FlexiTube siRNA Premixes against MAPK11 (SI00606053), MAPK14 (SI00300769) and All Star Negative Control siRNA (SI03650318) from Qiagen was used. A549 forward was transfected using 25 nM final siRNA concentration in 24-well plate. After 48 hours, knockdown was examined by Western blot (anti-p38, 1:1000, Cell Signaling) and RT-PCR (MAPK14, QT00079345, QIAGEN).
(§3) To examine if functional ion channels are important for the tumoricidal activity of HAMLET, A549 lung carcinoma cells in suspension were pretreated with the channel inhibitors for 30 minutes and exposed to increasing concentrations of HAMLET for three hours.
A549 cells were seeded to a density of 0.8-1.0×10^6 cells/well in RPMI without FCS. Different volumes of HAMLET/oleate and oleic acid solutions were added. The cells were incubated for 1 hour at 37° C. 5% CO2 for 1 hour before 50 μl of FCS (5% final concentration) were added to the wells. The cells were then further incubated for additional 2 hours before the viability were determined by trypan blue exclusion and ATP measurements.

[2] = test system: lung carcinoma, kidney carcinoma and lymphoma cells; test: HAMLET-induced change in cell morphology (light microscopy, real-time imaging); format: cell-based
Experimental: as §1
For live cell imaging, cells were pre-treated with SB202190 for 30 minutes, nuclei were stained with Hoechst 33342 (Invitrogen) and Alexa-Fluor 568-labeled HAMLET (10% labeled HAMLET, Molecular Probes) was added in serum-free medium. FCS was added after 1 hour. Fluorescence was detected with pinhole settings corresponding to 1 airy unit. The cells were kept at 37° C., 5% CO2 and examined unfixed by LSM510 DUO confocal microscopy (Carl Zeiss).
To examine if the HAMLET-induced change in carcinoma cell morphology was modified by the channel inhibitors, lung carcinoma, kidney carcinoma and lymphoma cells were exposed to HAMLET in the presence or absence of ion channel inhibitors and examined by light microscopy (FIG. 2C).
To determine if p38 signaling was involved in cell death, we inhibited p38α and p38β in lung and kidney carcinoma and Jurkat lymphoma cells with two small-molecule p38 inhibitors: SB202190, a highly specific pyridinyl-imidazole inhibitor; and BIRB796, a diaryl urea compound, which bears little structural similarity to SB202190 (Fabian et al., 2005, Nature Biotechnology 23: 329-336), ([…] and FIG. 12B). […] The effect of p38 inhibition on cell death was also observed by real-time confocal imaging of lung carcinoma cells exposed to fluorescently labeled HAMLET.

[3] = test system: kidney carcinoma (A498) cells; test: cell death assay with p38 inhibitors; format: cell-based, human; details: SB202190 20 μM or BIRB796 10 μM; HAMLET 3 h
Experimental: FIG. 4. p38 inhibition rescues carcinoma and lymphoma cells from death and morphological change in response to HAMLET. (A, B) p38 inhibition (SB202190, 20 μM) rescued carcinoma (A549 and A498) and T-cell lymphoma (Jurkat) cells from death in response to HAMLET (7-49 μM, 3 h). Viability was quantified by Trypan blue exclusion (A) or as ATP levels (B). Data are means+SEMs for 3 independent experiments. (C) Real-time images of cell morphology after HAMLET exposure, showing that p38 inhibition prevents morphological changes in carcinoma cells (nuclear condensation, rounding up and blebbing). (D-E) A549 lung carcinoma cells were transfected using siRNA against p38α/MAPK14 and/or p38β/MAPK11 or non-targeting siRNA. Relative MAPK11 and MAPK14 mRNA levels are shown (MAPK/GAPDH, in % of non-transfected cells) as means+SEMs for 4 independent experiments. […] (F) The cytotoxic effect of HAMLET was quantified 48 hours after transfection as reduction in ATP levels. […]
FIG. 12. […] Viability was quantified by ATP levels.
Cells were detached from cell culture flasks with versen (0.2 g EDTA in 200 ml H2O and 800 ml PBS), washed with PBS and resuspended in serum-free RPMI-1640. […] Cell death was quantified by trypan blue exclusion (Chroma Gesellschaft Schmid & Co) or by measuring ATP levels (ATPlite Kit, PerkinElmer, Infinite 200, Tecan). […]

[4] = test system: potassium channels in A549, lung carcinoma cell lines; test: FLUXOR potassium (K^+) channel assay, Thallium (Tl^+) indicator; format: cell-based, human; details: carcinoma cells, 30 minutes pretreatment, HAMLET 35 μM
Experimental: The FLUXOR™ potassium (K^+) channel assay was performed on the TECAN infinite F200 (Tecan Group, Switzerland), according to the manufacturer's instructions (Invitrogen). Briefly, this involved FLUXOR™ loading buffer (Hank's Balanced Saline Solution, (HBSS) buffered with 20 mM HEPES and pH adjusted to 7.4 with NaOH. POWERLOAD™ concentrate and water-soluble Probenecid were used respectively to enhance the dye solubility and retention, respectively. Media were removed from the cell plates manually, and 80 μL of loading buffer containing the FLUXOR™ dye mix was applied to each well. Once inside the cell, the nonfluorescent AM ester form of the FLUXOR™ dye is cleaved by endogenous esterases into a thallium-sensitive indicator. The dye was loaded for 60 minutes at room temperature and then removed with the supernatant. After washing with dye-free PBS buffer, a final volume of 80 μL assay buffer containing water-soluble probenecid was added. Cells received one of the following channel inhibitors: 3.3 μL per well of 30 mM amiloride, 3.0 μL of 32 mM BaCl2, 1.8 μL of 5.4 mM gadolinium, 3 μL 3.2 mM tetrandrine and 2.3 μL of 2.6 mM ruthenium red, and were then incubated at room temperature (23-25° C.) for 30 minutes to allow equilibration of the test compounds. Prior to injection, stimulation buffer was prepared from the chloride-free buffer and thallium reagents provided in the kit as well as HAMLET, to achieve a final added concentrations of 2 mM free Tl+ and 35 μM HAMLET after 1:5 dilution upon injection of the stimulus buffer onto cells that had been loaded with FLUXOR™ dye.
(§4) To distinguish Ca^2+ mobilization from intracellular stores from the influx of extracellular Ca^2+, EGTA was then added to the cell medium. […] K^+ fluxes across tumor cell membranes were subsequently quantified under the same experimental conditions, using the fluorophore FLUXOR™, which fluoresces after thallium has entered cells through K^+ channels.
Potassium channel activity was therefore measured in A549, lung carcinoma cell lines using an indicator, which emits fluorescence signal upon entering the cells via opened potassium channels, Thallium (Tl^+) indicator (FIG. 18).

[5] = test system: lung carcinoma cells (A549); test: intracellular Ca^2+, Fluo-4, real time confocal microscopy; format: cell-based, human
Experimental: To examine if HAMLET modulates ion channel activity in tumor cells, we first quantified changes in intracellular Ca^2+ and K^+. Lung carcinoma cells were first preloaded with the Fluo-4 Ca^2+ fluorophore Fluo-, exposed to HAMLET (35 μM) and examined by real time confocal microscopy for changes in fluorescence intensity (FIG. 1A). The Ca^2+ ionophore A23187, which acts as a Ca^2+ shuttle across cell membranes, was used as a positive control (Abbott et al., 1979, Antimicrobial Agents and Chemotherapy 16, 808-812).
as §4
(§5) To further characterize ion channel activation by HAMLET, carcinoma cells were pretreated with defined channel blockers. Amiloride is a sodium channel inhibitor with effects on mechanosensitive channels, barium chloride (BaCl2) is a general K^+ channel inhibitor, gadolinium chloride (GdCl3) inhibits mechanosensitive channels, Ruthenium red is a general Ca^2+ inhibitor and tetrandrine inhibits large conductance, Ca^2+ activated K^+ channels. The carcinoma cells were preincubated with Fluo-4 as described above, pretreated with each of the channel inhibitors for 30 minutes, exposed to HAMLET (35 μM) and examined by real time confocal imaging. Furthermore, cells treated with EGTA were compared to cells with intact extracellular Ca^2+ levels, to distinguish the early peak from the subsequent influx of Ca^2+ (FIG. 1B, Table in FIG. 8).

[6] = test system: Human renal tubular epithelial cells (HRTEC); test: Ca^2+ and K^+ levels in healthy, differentiated cells in primary culture; format: cell-based
Experimental: Human renal tubular epithelial cells (HRTEC) were preincubated with Fluo-4 as described, exposed to HAMLET (35 μM) and examined by real time confocal microscopy.
as §5

[7] = test system: p38, HSP27, ERK1/2 in kidney and lung carcinoma cells; test: MAPK phosphorylation (phospho-MAPK antibody arrays, Western blot); format: cell-based, human
From the text: Equal volumes of lysates were separated by SDS-PAGE on 4-12% Bis-Tris gels (Invitrogen) and blotted onto PVDF membranes. For other Western blots, 200,000 cells were allowed to adhere overnight in a 6-well plate. After HAMLET treatment the cells were washed with PBS and lysed in M-PER lysis buffer (Pierce) containing Complete protease inhibitor cocktail and PhosSTOP phosphatase inhibitor cocktail (both from Roche). The detached cells were collected by centrifugation. The lysates were cleared by centrifugation and protein concentrations were measured using the DC Protein Assay (Bio-Rad Laboratories, Hercules, Calif.). Equal amounts of protein were separated by SDS-PAGE on 4-12% Bis-Tris gels (Invitrogen) and blotted onto PVDF membranes (GE Healthcare). Membranes were saturated with BSA (GAPDH) or nonfat dry milk (phospho-p38, p38, phospho-ERK1/2, ERK1/2) and incubated with anti-p38, anti-phospho-p38, anti-ERK1/2, anti-phospho-(Thr202/Tyr204)-p44/42 (all 1:500-1000, Cell Signaling Technology), anti-ATF6 (1:1000, IMG-273, Imgenex), anti-phospho-eIF2α (Ser51), (1:500, Cell Signaling Technology) or anti-GAPDH (1:3000-5000, Novus Biologicals) antibodies followed by horseradish peroxidase-conjugated anti-rabbit (1:1000, DakoCytomation, Glostrup, Denmark) or anti-mouse (1:40000-50000, Novus Biologicals) antibodies for staining. Bound antibodies were detected with ECL Plus Western Blotting Reagent (GE Healthcare, Little Chalfont, UK) and GelDoc equipment (Bio-Rad Laboratories, Hercules, Calif.). If required, membranes were stripped with Restore Western Blot Stripping Buffer (Pierce, Rockford, Ill.), blocked and reprobed with new antibodies. MAP kinase phosphorylation was analyzed on a Human Phospho-MAPK array (Proteome Profiler Array, R&D Systems) as per the manufacturer's instruction. Band and spot intensities were quantified using ImageJ (Abramoff et al., July 2004, Biophotonics International). Cytokine quantification (IL6, IL8, TNFα) was performed on an […] 1000 immunoassay system (Siemens Diagnostics).
P38 MAPKs are activated by dual phosphorylation on conserved threonine and tyrosine residues by MKK3/6 and when phosphorylated, a wide variety of effector proteins, including MAPKAPK2 kinases, HSP27 chaperones and ATF2 and CHOP transcription factors become active (Cuenda et al., 2007, Biochimica et Biophysica Acta 1773: 1358-1375).

[8] = test system: lymphoma cells (Jurkat cells); test: cell death assay with inhibitors; format: cell-based; details: SB202190 20 μM; HAMLET 7-49 μM, 3 h
Experimental: GAPDH was used as a loading control.
as §1, §2, §3

## Cc1ccc(-n2nc(C(C)(C)C)cc2NC(=O)Nc2ccc(OCCN3CCOCC3)c3ccccc23)cc1 [BIRB796]
[1]
  effect of p38 inhibitor on death in response to HAMLET: rescued
[2]; BIRB796 10 μM, HAMLET 35 μM, 3 h
  effect of p38 inhibitor on morphological changes associated with HAMLET induced cell death: diminishes the morphological changes
[3]
  effect of p38 inhibitor on death in response to HAMLET: rescued

## [Cl][Gd]([Cl])[Cl] [GdCl3, Gadolinium chloride, reference compound]
[1]; 30 minutes pretreatment, HAMLET three hours
  effect of channel inhibitor on HAMLET-induced cell death: no effect on viability
[2]; light microscopy
  effect of ion channel inhibitor on HAMLET-induced change in cell morphology: did not prevent the morphological changes
[4]
  effect of channel blocker on K^+ flux in response to HAMLET: strongly inhibited
[5]; 30 minutes pretreatment, HAMLET 35 μM
  effect of channel blocker on first, EGTA insensitive Ca^2+ peak in response to HAMLET: inhibited
[6]
  effect of channel blocker on response to HAMLET in healthy cells: no effect

## Oc1ccc(-c2nc(-c3ccncc3)c(-c3ccc(F)cc3)[nH]2)cc1 [SB202190]
[1]
  effect of p38 inhibitor on death in response to HAMLET: rescued; also recorded: clearly attenuated
[7]
  effect of p38 inhibitor on p38 and HSP27 phosphorylation upon HAMLET treatment: marked decrease in p38 and HSP27 phosphorylation
[8]
  effect of p38 inhibitor on death in response to HAMLET: rescued
[3]
  effect of p38 inhibitor on death in response to HAMLET: rescued

## CNc1ccc2oc(C[C@H]3O[C@@]4(CC[C@H]3C)O[C@H]([C@H](C)C(=O)c3ccc[nH]3)[C@H](C)C[C@H]4C)nc2c1C(=O)O [ionophore, reference compound]
[5]
  cells involved in Ca^2+ response: all cells
[5]; HAMLET 35 μM
  intracellular Ca^2+ response: more drastic and sustained increase in intracellular Ca^2+ levels than HAMLET
[6]; HAMLET 35 μM
  Ca^2+ response in HRTECs: rapid and sustained increase in Ca^2+
